Assay results published in ChEMBL document CHEMBL1201862, “PubChem BioAssay data set” (2004).
“And” between values parts separate entries of the source, which are not always exact repeats. Equal values may be shown once.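 Growth conditions: 96-well plates. Treatment: test compound, 48 hours, 5 concentrations. Analysis: linear interpolation between bracketing concentrations; unreached endpoints set to highest concentration. GI50: concentration for 50% inhibition of growth.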 The source made the active and inactive calls. No stated cut-off is given here; in the data, active = GI50 up to about 1.1 µM and inactive = higher.

Assays:
Assay in all cases: NCI anticancer screen, dose series, 48 h
DMS-114 = system: DMS-114
DMS-273 = system: DMS-273
HOP-18 = system: HOP-18
KM-20L2 = system: KM-20L2
M19-MEL = system: M19-MEL
SNB-78 = system: SNB-78
XF498 = system: XF498
LXFL 529 = system: LXFL 529
RXF 631 = system: RXF 631

SMILES	GI50 (DMS-114)	GI50 (DMS-273)	GI50 (HOP-18)	GI50 (KM-20L2)	GI50 (M19-MEL)	GI50 (SNB-78)	GI50 (XF498)	GI50 (LXFL 529)	GI50 (RXF 631)
CCCCCCCCOC(=O)c1cc([N+](=O)[O-])c(Sc2[nH]cnc3ncnc2-3)c([N+](=O)[O-])c1	0.507 µM (active)	0.425 µM (active)	1.65 µM (inactive)	1.99 µM (inactive)	6.38 µM (inactive)	2.47 µM (inactive)	0.67 µM (active)	–	–
COc1cccc2c1C(=O)c1c(O)c3c(c(O)c1C2=O)C[C@@](O)(C(=O)CO)C[C@@H]3OC1CC(N(C)C)C(O)C(C)O1 (some centres not stated)	–	< 0.0106 µM (active)	0.0805 µM (active)	0.0367 µM (active)	–	0.0453 µM (active)	0.0149 µM (active)	< 0.0174 µM (active)	–
O=c1c2ccccc2c(=O)n2n1CC=CC2	> 100 µM (inactive)	> 100 µM (inactive)	> 100 µM (inactive)	> 100 µM (inactive)	> 100 µM (inactive)	> 100 µM (inactive)	–	> 100 µM (inactive)	–
CCOc1ccc(/N=N/c2c(-c3ccccc3)nn(C(=O)CC(=O)Nc3ccccc3Cl)c2-c2ccccc2)cc1	23 µM (inactive)	18.3 µM (inactive)	> 100 µM (inactive)	56.4 µM (inactive)	54.8 µM (inactive)	51.4 µM (inactive)	28.4 µM (inactive)	76 µM (inactive)	–
Clc1cccc(C2SCc3nc4ccccc4n32)c1Cl (configuration not stated)	20.7 µM (inactive)	15.9 µM (inactive)	18.1 µM (inactive)	19.4 µM (inactive)	12.5 µM (inactive)	38.1 µM (inactive)	16 µM (inactive)	15.9 µM (inactive)	–
O=CC1=CCCN(CCc2c[nH]c3ccccc23)C1	40.6 µM (inactive)	46.2 µM (inactive)	57.3 µM (inactive)	65.8 µM (inactive)	72.8 µM (inactive)	–	–	11.2 µM (inactive)	47 µM (inactive)
COc1c(-c2ccccc2)nc2ccc(Oc3ccccc3)nn12	> 50.4 µM (inactive)	> 57.1 µM (inactive)	> 45.5 µM (inactive)	> 75 µM (inactive)	> 64.3 µM (inactive)	> 60 µM (inactive)	23.8 µM (inactive)	> 38.3 µM (inactive)	–
O=C(Cc1nc2ccccc2s1)C(=O)Nc1ccccc1C(F)(F)F	> 100 µM (inactive)	> 100 µM (inactive)	> 100 µM (inactive)	> 100 µM (inactive)	> 100 µM (inactive)	> 100 µM (inactive)	> 100 µM (inactive)	> 100 µM (inactive)	–
CCOC(=O)C1C(=O)C(C(=O)OCC)C(c2ccccc2)N(C)C1c1ccccc1 (configuration not stated)	56 µM (inactive)	> 100 µM (inactive)	–	> 100 µM (inactive)	> 100 µM (inactive)	> 100 µM (inactive)	–	> 100 µM (inactive)	> 100 µM (inactive)
Nc1nc2c3nc(Nc4ccccc4)sc3nc(=O)n2c2sc(Nc3ccccc3)nc12	–	> 100 µM (inactive)	> 100 µM (inactive)	> 100 µM (inactive)	> 100 µM (inactive)	> 100 µM (inactive)	> 100 µM (inactive)	> 100 µM (inactive)	–
O=[N+]([O-])c1ccc2occ3c2c1CCC3	> 100 µM (inactive)	> 100 µM (inactive)	–	–	> 100 µM (inactive)	> 100 µM (inactive)	–	> 100 µM (inactive)	–
CC(=O)OC1C/C(C)=C/CCC(C)/C=C/C2(C)CCC(C(C)(C)O)C12 (configuration not stated)	34.6 µM (inactive)	44.2 µM (inactive)	> 100 µM (inactive)	49.4 µM (inactive)	28.9 µM (inactive)	61.9 µM (inactive)	39.4 µM (inactive)	58.5 µM (inactive)	–
O=C1C=Cc2c(-c3ccccc3)oc3cccc1c23	17.8 µM (inactive)	5.98 µM (inactive)	15 µM (inactive)	27.2 µM (inactive)	23 µM (inactive)	48.3 µM (inactive)	7.28 µM (inactive)	22.8 µM (inactive)	10.4 µM (inactive)
C1CCN(c2nc(=[N+]3CCCCC3)ss2)CC1	31.1 µM (inactive)	> 100 µM (inactive)	> 100 µM (inactive)	> 100 µM (inactive)	> 100 µM (inactive)	> 100 µM (inactive)	> 100 µM (inactive)	> 100 µM (inactive)	> 100 µM (inactive)
CCCCCCC(C)CCCCCCCCCCC(=O)O (configuration not stated)	> 100 µM (inactive)	> 100 µM (inactive)	> 100 µM (inactive)	> 100 µM (inactive)	> 100 µM (inactive)	–	> 100 µM (inactive)	> 100 µM (inactive)	> 100 µM (inactive)
CCCCC(/C=N/NC(=N)N)CC.Cc1cc(O)c(C(C)C)cc1S(=O)(=O)O	24.5 µM (inactive)	38 µM (inactive)	–	45.7 µM (inactive)	48.3 µM (inactive)	84.7 µM (inactive)	–	70.8 µM (inactive)	–
O=C1CCNC(=O)NC1	> 100 µM (inactive)	> 100 µM (inactive)	> 100 µM (inactive)	> 100 µM (inactive)	> 100 µM (inactive)	> 100 µM (inactive)	> 100 µM (inactive)	> 100 µM (inactive)	> 100 µM (inactive)
O=C1C(=O)N(C(=O)c2ccc(Cl)c(Cl)c2)c2ccccc21	> 100 µM (inactive)	> 100 µM (inactive)	> 100 µM (inactive)	–	> 100 µM (inactive)	> 100 µM (inactive)	–	> 100 µM (inactive)	> 100 µM (inactive)
Clc1ccc(C2N3CCCCC3[C@@H]3c4[nH]c5ccccc5c4CCN23)cc1 (some centres not stated)	37.3 µM (inactive)	42.2 µM (inactive)	> 100 µM (inactive)	30.7 µM (inactive)	23.6 µM (inactive)	37.8 µM (inactive)	64.4 µM (inactive)	38.1 µM (inactive)	–
Cc1ccccc1NC(=O)CC1C(=O)Nc2ccccc2[S+]1[O-] (configuration not stated)	> 100 µM (inactive)	> 100 µM (inactive)	–	> 100 µM (inactive)	> 100 µM (inactive)	> 100 µM (inactive)	96.6 µM (inactive)	> 100 µM (inactive)	93.8 µM (inactive)
COC(=O)[C@@H]1[C@H](O)[C@H](C)[C@H](O)[C@@](C)(O)/C=C\C=C(\C)C(=O)Nc2c(C)c(OC(C)=O)c3c(c2O)C(=O)C(C)=C2OCOC(=C23)/C(C)=C/[C@@](C)(O)[C@H](O)[C@@H](C)[C@H]1OC(C)=O	33.2 µM (inactive) and 624 nM (active)	> 100 µM (inactive) and 60 µM (inactive)	30.6 µM (inactive)	57.1 µM (inactive)	11.5 µM (inactive)	> 66.8 µM (inactive)	–	57.4 µM (inactive)	–
COc1cc(/C=C/c2cccnc2)cc(OC)c1OC	> 100 µM (inactive)	> 100 µM (inactive)	53.1 µM (inactive)	> 100 µM (inactive)	> 100 µM (inactive)	> 100 µM (inactive)	> 100 µM (inactive)	92.7 µM (inactive)	–
